According to PMC7311426, “An amphipathic peptide with antibiotic activity against multidrug-resistant Gram-negative bacteria” (Nature Communications, 2020):

Tests used:
Test in all cases: microbe, parasite or virus in culture
P. aeruginosa = system: P. aeruginosa
Outline: (§1)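 MICs were scored by eye after 18-20 h static incubation at 37 °C, with bacteria at 5 × 10^5 CFU mL^−1 in MHB. Peptides were serially diluted 2-fold over 12 points, top 128 or 64 μg mL^−1. CAMHB (CLSI) and 1% agarose-MHB variants were also run, at least six replicates.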

E. coli = system: E. coli
Outline: as §1

K. pneumoniae = system: K. pneumoniae
Outline: as §1

Measured: MIC, broth microdilution

C[C@H]1[C@H](NC(=O)/C(=N\OC(C)(C)C(=O)O)c2csc(N)n2)C(=O)N1S(=O)(=O)O [AZT]
4 µg/mL: P. aeruginosa; P. aeruginosa ATCC 27853 parent strain not exposed to drug | P. aeruginosa; P. aeruginosa ATCC 27853 spontaneous mutant, AA139 selection 4X, plate 1, colony 2, drug-free passage 5 | P. aeruginosa; P. aeruginosa ATCC 27853 spontaneous mutant, AA139 selection 4X, plate 1, colony 3, drug-free passage 1 | P. aeruginosa; P. aeruginosa ATCC 27853 spontaneous mutant, AA139 selection 4X, plate 1, colony 4, drug-free passage 5 | P. aeruginosa; P. aeruginosa ATCC 27853 spontaneous mutant, AA139 selection 4X, plate 1, colony 5, drug-free passage 5 | P. aeruginosa; P. aeruginosa ATCC 27853 spontaneous mutant, AA139 selection 4X, plate 1, colony 6, drug-free passage 5 | P. aeruginosa; P. aeruginosa ATCC 27853 spontaneous mutant, AA139 selection 8X, plate 1, colony 1, drug-free passage 5 | P. aeruginosa; P. aeruginosa UNT 138-1 parent strain not exposed to drug | P. aeruginosa; P. aeruginosa UNT 138-1 spontaneous mutant, AA139 selection 4X, plate 1, colony 1, drug-free passage 1 | P. aeruginosa; P. aeruginosa UNT 138-1 spontaneous mutant, AA139 selection 4X, plate 1, colony 3, drug-free passage 1 | P. aeruginosa; P. aeruginosa UNT 138-1 spontaneous mutant, AA139 selection 8X, plate 1, colony 5, drug-free passage 1 | P. aeruginosa; P. aeruginosa UNT 138-1 spontaneous mutant, AA139 selection 8X, plate 2, colony 1, drug-free passage 1
0.06 µg/mL: K. pneumoniae; K. pneumoniae 3010 parent strain not exposed to drug
4, 4 µg/mL: P. aeruginosa; P. aeruginosa ATCC 27853 spontaneous mutant, AA139 selection 4X, plate 1, colony 1, drug-free passage 1 | P. aeruginosa; P. aeruginosa ATCC 27853 spontaneous mutant, AA139 selection 4X, plate 1, colony 1, drug-free passage 5 | P. aeruginosa; P. aeruginosa ATCC 27853 spontaneous mutant, AA139 selection 4X, plate 2, colony 1, drug-free passage 1 | P. aeruginosa; P. aeruginosa ATCC 27853 spontaneous mutant, AA139 selection 4X, plate 2, colony 1, drug-free passage 5 | P. aeruginosa; P. aeruginosa ATCC 27853 spontaneous mutant, AA139 selection 4X, plate 2, colony 2, drug-free passage 1 | P. aeruginosa; P. aeruginosa ATCC 27853 spontaneous mutant, AA139 selection 4X, plate 2, colony 2, drug-free passage 5 | P. aeruginosa; P. aeruginosa ATCC 27853 spontaneous mutant, AA139 selection 4X, plate 2, colony 3, drug-free passage 1 | P. aeruginosa; P. aeruginosa ATCC 27853 spontaneous mutant, AA139 selection 4X, plate 2, colony 3, drug-free passage 5 | P. aeruginosa; P. aeruginosa ATCC 27853 spontaneous mutant, AA139 selection 4X, plate 2, colony 4, drug-free passage 1 | P. aeruginosa; P. aeruginosa ATCC 27853 spontaneous mutant, AA139 selection 4X, plate 2, colony 4, drug-free passage 5 | P. aeruginosa; P. aeruginosa UNT 138-1 spontaneous mutant, AA139 selection 4X, plate 1, colony 2, drug-free passage 1 | P. aeruginosa; P. aeruginosa UNT 138-1 spontaneous mutant, AA139 selection 4X, plate 1, colony 2, drug-free passage 5 | P. aeruginosa; P. aeruginosa UNT 138-1 spontaneous mutant, AA139 selection 4X, plate 1, colony 5, drug-free passage 1 | P. aeruginosa; P. aeruginosa UNT 138-1 spontaneous mutant, AA139 selection 4X, plate 1, colony 5, drug-free passage 5 | P. aeruginosa; P. aeruginosa UNT 138-1 spontaneous mutant, AA139 selection 4X, plate 1, colony 6, drug-free passage 1 | P. aeruginosa; P. aeruginosa UNT 138-1 spontaneous mutant, AA139 selection 4X, plate 1, colony 6, drug-free passage 5 | P. aeruginosa; P. aeruginosa UNT 138-1 spontaneous mutant, AA139 selection 4X, plate 1, colony 7, drug-free passage 1 | P. aeruginosa; P. aeruginosa UNT 138-1 spontaneous mutant, AA139 selection 4X, plate 1, colony 7, drug-free passage 5 | P. aeruginosa; P. aeruginosa UNT 138-1 spontaneous mutant, AA139 selection 4X, plate 2, colony 2, drug-free passage 1 | P. aeruginosa; P. aeruginosa UNT 138-1 spontaneous mutant, AA139 selection 4X, plate 2, colony 2, drug-free passage 5 | P. aeruginosa; P. aeruginosa UNT 138-1 spontaneous mutant, AA139 selection 4X, plate 2, colony 3, drug-free passage 1 | P. aeruginosa; P. aeruginosa UNT 138-1 spontaneous mutant, AA139 selection 4X, plate 2, colony 3, drug-free passage 5 | P. aeruginosa; P. aeruginosa UNT 138-1 spontaneous mutant, AA139 selection 4X, plate 2, colony 4, drug-free passage 1 | P. aeruginosa; P. aeruginosa UNT 138-1 spontaneous mutant, AA139 selection 4X, plate 2, colony 4, drug-free passage 5 | P. aeruginosa; P. aeruginosa UNT 138-1 spontaneous mutant, AA139 selection 4X, plate 2, colony 5, drug-free passage 1 | P. aeruginosa; P. aeruginosa UNT 138-1 spontaneous mutant, AA139 selection 4X, plate 2, colony 5, drug-free passage 5 | P. aeruginosa; P. aeruginosa UNT 138-1 spontaneous mutant, AA139 selection 4X, plate 2, colony 6, drug-free passage 1 | P. aeruginosa; P. aeruginosa UNT 138-1 spontaneous mutant, AA139 selection 4X, plate 2, colony 6, drug-free passage 5 | P. aeruginosa; P. aeruginosa UNT 138-1 spontaneous mutant, AA139 selection 4X, plate 2, colony 7, drug-free passage 1 | P. aeruginosa; P. aeruginosa UNT 138-1 spontaneous mutant, AA139 selection 4X, plate 2, colony 7, drug-free passage 5 | P. aeruginosa; P. aeruginosa UNT 138-1 spontaneous mutant, AA139 selection 8X, plate 1, colony 1, drug-free passage 1 | P. aeruginosa; P. aeruginosa UNT 138-1 spontaneous mutant, AA139 selection 8X, plate 1, colony 1, drug-free passage 5 | P. aeruginosa; P. aeruginosa UNT 138-1 spontaneous mutant, AA139 selection 8X, plate 1, colony 2, drug-free passage 1 | P. aeruginosa; P. aeruginosa UNT 138-1 spontaneous mutant, AA139 selection 8X, plate 1, colony 2, drug-free passage 5 | P. aeruginosa; P. aeruginosa UNT 138-1 spontaneous mutant, AA139 selection 8X, plate 1, colony 3, drug-free passage 1 | P. aeruginosa; P. aeruginosa UNT 138-1 spontaneous mutant, AA139 selection 8X, plate 1, colony 3, drug-free passage 5 | P. aeruginosa; P. aeruginosa UNT 138-1 spontaneous mutant, AA139 selection 8X, plate 1, colony 4, drug-free passage 1 | P. aeruginosa; P. aeruginosa UNT 138-1 spontaneous mutant, AA139 selection 8X, plate 1, colony 4, drug-free passage 5
>32 , >32 µg/mL: E. coli; E. coli AUD172 spontaneous mutant, AA139 selection 4X, plate 2, colony 2, drug-free passage 1 | E. coli; E. coli AUD172 spontaneous mutant, AA139 selection 4X, plate 2, colony 2, drug-free passage 5 | K. pneumoniae; K. pneumoniae ST258 spontaneous mutant, AA139 selection 4X, plate 1, colony 1, drug-free passage 1 | K. pneumoniae; K. pneumoniae ST258 spontaneous mutant, AA139 selection 4X, plate 1, colony 1, drug-free passage 5
8 µg/mL: P. aeruginosa; P. aeruginosa ATCC 27853 spontaneous mutant, AA139 selection 4X, plate 1, colony 2, drug-free passage 1 | P. aeruginosa; P. aeruginosa ATCC 27853 spontaneous mutant, AA139 selection 4X, plate 1, colony 3, drug-free passage 5 | P. aeruginosa; P. aeruginosa ATCC 27853 spontaneous mutant, AA139 selection 4X, plate 1, colony 4, drug-free passage 1 | P. aeruginosa; P. aeruginosa ATCC 27853 spontaneous mutant, AA139 selection 4X, plate 1, colony 5, drug-free passage 1 | P. aeruginosa; P. aeruginosa ATCC 27853 spontaneous mutant, AA139 selection 4X, plate 1, colony 6, drug-free passage 1 | P. aeruginosa; P. aeruginosa ATCC 27853 spontaneous mutant, AA139 selection 8X, plate 1, colony 1, drug-free passage 1 | P. aeruginosa; P. aeruginosa UNT 138-1 spontaneous mutant, AA139 selection 4X, plate 1, colony 1, drug-free passage 5 | P. aeruginosa; P. aeruginosa UNT 138-1 spontaneous mutant, AA139 selection 4X, plate 1, colony 3, drug-free passage 5 | P. aeruginosa; P. aeruginosa UNT 138-1 spontaneous mutant, AA139 selection 8X, plate 1, colony 5, drug-free passage 5 | P. aeruginosa; P. aeruginosa UNT 138-1 spontaneous mutant, AA139 selection 8X, plate 2, colony 1, drug-free passage 5
>32 µg/mL: E. coli; E. coli AUD172 parent strain not exposed to drug | K. pneumoniae; K. pneumoniae ST258 parent strain not exposed to drug
8, 8 µg/mL: P. aeruginosa; P. aeruginosa ATCC 27853 spontaneous mutant, AA139 selection 8X, plate 1, colony 2, drug-free passage 1 | P. aeruginosa; P. aeruginosa ATCC 27853 spontaneous mutant, AA139 selection 8X, plate 1, colony 2, drug-free passage 5 | P. aeruginosa; P. aeruginosa ATCC 27853 spontaneous mutant, AA139 selection 8X, plate 1, colony 3, drug-free passage 1 | P. aeruginosa; P. aeruginosa ATCC 27853 spontaneous mutant, AA139 selection 8X, plate 1, colony 3, drug-free passage 5 | P. aeruginosa; P. aeruginosa ATCC 27853 spontaneous mutant, AA139 selection 8X, plate 1, colony 4, drug-free passage 1 | P. aeruginosa; P. aeruginosa ATCC 27853 spontaneous mutant, AA139 selection 8X, plate 1, colony 4, drug-free passage 5 | P. aeruginosa; P. aeruginosa ATCC 27853 spontaneous mutant, AA139 selection 8X, plate 1, colony 5, drug-free passage 1 | P. aeruginosa; P. aeruginosa ATCC 27853 spontaneous mutant, AA139 selection 8X, plate 1, colony 5, drug-free passage 5 | P. aeruginosa; P. aeruginosa UNT 138-1 spontaneous mutant, AA139 selection 4X, plate 1, colony 4, drug-free passage 1 | P. aeruginosa; P. aeruginosa UNT 138-1 spontaneous mutant, AA139 selection 4X, plate 1, colony 4, drug-free passage 5 | P. aeruginosa; P. aeruginosa UNT 138-1 spontaneous mutant, AA139 selection 4X, plate 2, colony 1, drug-free passage 1 | P. aeruginosa; P. aeruginosa UNT 138-1 spontaneous mutant, AA139 selection 4X, plate 2, colony 1, drug-free passage 5
